One data set concerns HBV. Nature of the data set: Anti-HBV activity in HepG2.2.15 cells (HBV DNA in culture medium by qPCR). As to conditions: Hepatitis B virus, HepG2.2.15, 144 h, HepG2.2.15 cells, 6 days treatment, HBV DNA in culture medium quantified by real-time PCR; read-out: EC50. The class given is cell-based. Summed up:
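HepG2.2.15 cells in 2% FBS medium at 37 °C were treated with compounds for 6 days, with medium and compound refreshed at day 3; 1:3 dilutions, 8 concentrations in triplicate, top 10 or 1 uM. HBV DNA in culture medium quantified by qPCR to derive EC50; CC50 from parallel plates (top 100 uM).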
In general terms: Real-time PCR tracks product formation cycle by cycle.

A short description of data set [1]: Cytotoxicity determination in HepG2.2.15 cells (CCK-8 cell viability). The class given is cell-based. The following applies: human, 6 days treatment, CCK-8 assay, highest concentration 100 uM. The essentials: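 HepG2.2.15 cells seeded at 5,000 cells/well in 2% FBS medium, exposed 6 days to compounds (8-point 1:3 dilutions from 100 uM, triplicate), refreshed at day 3. Viability read by CCK-8 after 2.5 h at 37° C, absorbance 450 nm with 630 nm reference; CC50 calculated.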
A general note: Formazan colour is commonly taken as a measure of viable cells.

For orientation: EC50 means the concentration needed to bring the measured effect to its halfway point. For orientation: CC50 means the concentration giving 50% cytotoxicity. The low end stands for harm at low concentration, the high end for better tolerance by the cells.

Regarding `CCOC(=O)C1=C(CN2CC(F)(F)[C@H]3[C@@H]2CCN3CCC(C)(C)C(=O)O)NC(c2nccs2)=N[C@H]1c1cccc(F)c1Cl` (single isomer, unassigned) [Compound 145, 4-((cis)-4-((6-(2-chloro-3-fluorophenyl)-5-(ethoxycarbonyl)-2-(thiazol-2-yl)-3,6-dihydropyrimidin-4-yl)methyl)-6,6-difluorohexahydropyrrolo[3,2-b]pyrrol-1(2H)-yl)-2,2-dimethylbutanoic acid], in the data set on HBV, the EC50 was found to be 0.0009 µM. The same molecule registered a CC50 at 6 days in data set [1] of 26 µM.

For `CCOC(=O)C1=C(CN2CC(F)(F)[C@H]3[C@@H]2CCN3CCC(C)(C)C(=O)O)NC(c2nccn2C)=N[C@H]1c1cccc(F)c1C` (single isomer, unassigned) [Compound 146, 4-((cis)-4-((5-(Ethoxycarbonyl)-6-(3-fluoro-2-methylphenyl)-2-(1-methyl-1H-imidazol-2-yl)-3,6-dihydropyrimidin-4-yl)methyl)-6,6-difluorohexahydropyrrolo[3,2-b]pyrrol-1(2H)-yl)-2,2-dimethylbutanoic acid], the EC50 with HBV was determined as 0.0131 µM. The same molecule registered a CC50 at 6 days in data set [1] of 32.2 µM.

For `CCOC(=O)C1=C(CN2CC(F)(F)[C@H]3[C@@H]2CCN3CCC(C)C(=O)O)NC(c2nccs2)=N[C@H]1c1cccc(F)c1C` (single isomer, unassigned) [Compound 147], the EC50 in the data set on HBV was < 0.0005 µM. For the same molecule, in data set [1], the CC50 at 6 days worked out at 34.6 µM.

Consider `CCOC(=O)C1=C(CN2CC(F)(F)[C@H]3[C@@H]2CCN3CCOC(C)C(=O)O)NC(c2nccs2)=N[C@H]1c1cccc(F)c1C` (single isomer, unassigned) [Compound 148], for which the EC50 with HBV was 0.0073 µM. Besides, it took 34.1 µM to reach half-maximal cytotoxicity in data set [1] (CC50 at 6 days).

Regarding `CCOC(=O)C1=C(CN2CC(F)(F)[C@H]3[C@@H]2CCN3C[C@@H](C)C(=O)O)NC(c2nccs2)=N[C@H]1c1cccc(F)c1Cl` (single isomer, unassigned) [Compound 149A], the EC50 in the data set with HBV was < 0.0005 µM. For the same molecule, half-maximal cytotoxicity in data set [1] (CC50 at 6 days) was put at 21.8 µM.

As to `CCOC(=O)C1=C(CN2CC(F)(F)[C@H]3[C@@H]2CCN3C[C@H](C)C(=O)O)NC(c2nccs2)=N[C@H]1c1cccc(F)c1Cl` (single isomer, unassigned) [Compound 149B], in the data set with HBV, the EC50 was 0.0019 µM. In data set [1], half-maximal cytotoxicity (CC50 at 6 days) was put at 34.1 µM.

Take `CCOC(=O)C1=C(CN2CC(F)(F)[C@H]3[C@@H]2CCN3c2ncc(C(=O)O)cn2)NC(c2nccs2)=N[C@H]1c1cccc(F)c1C` (single isomer, unassigned) [Compound 150]: the EC50 in the data set with HBV came out at 0.057 µM. Also, the CC50 at 6 days in data set [1] is 15 µM.

With `CCCOC(=O)C1=C(CN2CC(F)(F)[C@H]3[C@@H]2CCN3CCC(C)(C)C(=O)O)NC(c2nccs2)=N[C@H]1c1cccc(F)c1C` (single isomer, unassigned) [Compound 151], the concentration giving a half-maximal response (EC50) in the data set with HBV is 0.0187 µM. In addition, half-maximal cytotoxicity in data set [1] (CC50 at 6 days) was put at 9.3 µM.

Turning to `Cc1c(F)cccc1[C@@H]1N=C(c2nccs2)NC(CN2CC(F)(F)[C@H]3[C@@H]2CCN3CCC(C)(C)C(=O)O)=C1C(=O)OC(C)C` (single isomer, unassigned) [Compound 152], the EC50 with HBV came to 0.0618 µM. Further, the CC50 at 6 days in data set [1] was 12.7 µM.

Consider `CCOC(=O)C1=C(CN2CC(F)(F)[C@H]3[C@@H]2CC(C)N3CCC(C)(C)C(=O)O)NC(c2nccs2)=N[C@H]1c1cccc(F)c1C` (single isomer, unassigned) [Compound 153], for which the EC50 in the data set with HBV was determined as 0.006 µM. The same molecule registered a CC50 at 6 days in data set [1] of 21.8 µM.

Consider `CCOC(=O)C1=C(CN2CC(F)(F)[C@H]3[C@@H]2CC2(CC2)N3CCC(C)(C)C(=O)O)NC(c2nccs2)=N[C@H]1c1cccc(F)c1C` (single isomer, unassigned) [Compound 154], for which the EC50 in the data set with HBV was found to be 0.071 µM. Further, half-maximal cytotoxicity in data set [1] (CC50 at 6 days) was put at 48.3 µM.

As to `CCOC(=O)C1=C(CN2CC(F)(F)[C@H]3[C@@H]2CCN3CC23CC(C(=O)O)(C2)C3)NC(c2nccs2)=N[C@H]1c1cccc(F)c1C` (single isomer, unassigned) [Compound 155], in the data set on HBV, the EC50 turned out to be 0.0007 µM. The molecule also returned a CC50 at 6 days in data set [1] of 10 µM.

Take `CCOC(=O)C1=C(CN2CC(F)(F)[C@H]3[C@@H]2CC(=O)N3CCCC(C)(C)C(=O)O)NC(c2nccs2)=N[C@H]1c1cccc(F)c1C` (single isomer, unassigned) [Compound 156]: in the data set with HBV, the EC50 came to 0.063 µM. In data set [1], this molecule gave a half-maximal cytotoxic concentration (CC50) at 6 days of 10.3 µM.

Take `[2H]C1([2H])C[C@H]2[C@@H](N1CCC(C)(C)C(=O)O)C(F)(F)CN2CC1=C(C(=O)OCC)[C@H](c2cccc(F)c2C)N=C(c2nccs2)N1` (single isomer, unassigned) [Compound 157]: the EC50 in the data set on HBV came out at 0.0008 µM. The same molecule had a CC50 at 6 days in data set [1] of 24.8 µM.

In the case of `CCOC(=O)C1=C(CN2CC(F)(F)[C@H]3[C@@H]2CC(=O)N3[C@H]2CC[C@@H](C(=O)O)CC2)NC(c2nccs2)=N[C@H]1c1cccc(F)c1C` (single isomer, unassigned) [Compound 158A], in the data set on HBV, the EC50 came to 0.0531 µM. For the same molecule, it took 27.9 µM to reach half-maximal cytotoxicity in data set [1] (CC50 at 6 days).

In the case of `CCOC(=O)C1=C(CN2CC(F)(F)[C@H]3[C@@H]2CC(=O)N3[C@H]2CC[C@H](C(=O)O)CC2)NC(c2nccs2)=N[C@H]1c1cccc(F)c1C` (single isomer, unassigned) [Compound 158B], in the data set with HBV, the EC50 amounted to 0.0526 µM. The same molecule showed a CC50 at 6 days in data set [1] of 16.6 µM.

Consider `CCOC(=O)C1=C(CN2CC(F)(F)[C@H]3[C@@H]2CCN3CC(C)(C)C(=O)O)NC(c2nccs2)=N[C@@H]1c1ccc(F)nc1C` (single isomer, unassigned) [Compound 159, 3-((cis)-4-((5-(ethoxycarbonyl)-6-(6-fluoro-2-methylpyridin-3-yl)-2-(thiazol-2-yl)-3,6-dihydropyrimidin-4-yl)methyl)-6,6-difluorohexahydropyrrolo[3,2-b]pyrrol-1(2H)-yl)-2,2-dimethylpropanoic acid], for which the EC50 in the data set with HBV came to 0.0006 µM. The molecule further had a CC50 at 6 days in data set [1] of 75.7 µM.

Regarding `COC(=O)C1=C(CN2CC(F)(F)[C@@H]3[C@H]2CON3CCC(C)(C)C(=O)O)NC(c2nccs2)=N[C@H]1c1cccc(F)c1C` (single isomer, unassigned) [Compound 160], the EC50 in the data set with HBV came out at 0.014 µM. Moreover, the half-maximal cytotoxic concentration (CC50) at 6 days in data set [1] worked out at 100 µM.

For the molecule `COC(=O)C1=C(CN2CC(F)(F)[C@@H]3[C@H]2CON3CCC(C)(C)C(=O)O)NC(c2nccs2)=N[C@H]1c1ccc(F)c(F)c1C` (single isomer, unassigned) [Compound 161, (cis)-4-(4-((6-(3,4-difluoro-2-methylphenyl)-5-(methoxycarbonyl)-2-(thiazol-2-yl)-3,6-dihydropyrimidin-4-yl)methyl)-6,6-difluorohexahydro-1H-pyrrolo[3,2-c]isoxazol-1-yl)-2,2-dimethylbutanoic acid], the EC50 with HBV was 0.008 µM. Besides, the CC50 at 6 days in data set [1] is > 50 µM.

Turning to `COC(=O)C1=C(CN2CC(F)(F)[C@@H]3[C@H]2CON3CCC(C)(C)C(=O)O)NC(c2nccs2)=N[C@H]1c1ccc(F)c(F)c1Cl` (single isomer, unassigned) [Compound 162, (cis)-4-(4-((6-(2-chloro-3,4-difluorophenyl)-5-(methoxycarbonyl)-2-(thiazol-2-yl)-3,6-dihydropyrimidin-4-yl)methyl)-6,6-difluorohexahydro-1H-pyrrolo[3,2-c]isoxazol-1-yl)-2,2-dimethylbutanoic acid], the EC50 in the data set with HBV stood at 0.005 µM. The molecule further registered a CC50 at 6 days in data set [1] of 50 µM.
